Data: BindingDB's records for doi:10.1021/ml2001196 (2011)

Assays:
[1] = Antagonist activity at CRTH2 receptor in human whole blood assessed as inhibition of PGD2-induced eosinophil chemotaxis
[2] = Antagonist activity at CRTH2 receptor in human whole blood assessed as inhibition of PGD2-induced eosinophil shape change pretreated for 20 mins measured after 1 hr by flow cytometric analysis

IC50 [1] [µM]	IC50 [2] [µM]	SMILES
0.0074	0.069	O=C(O)CN1C(=O)[C@@]2(NC(=O)N(Cc3cc(Cl)ccc3F)C2=O)c2cc(Cl)ccc21
0.047	–	CN1C(=O)N(Cc2cc(Cl)ccc2F)C(=O)[C@]12C(=O)N(CC(=O)O)c1ccc(Cl)cc12
0.062	1.8	O=C(O)CN1C(=O)[C@@]2(CC(=O)N(Cc3cc(Cl)ccc3F)C2)c2cc(Cl)ccc21 [2-[(3S)-5-chloro-1'-[(5-chloro-2-fluorophenyl)methyl]-1,2-dihydrospiro[indole-3,3'-pyrrolidine]-2,5'-dione]acetic acid]
–	3.94	CN1C(=O)N(Cc2csc(-c3ccccc3)n2)C(=O)C12C(=O)N(CC(=O)O)c1ccc(Cl)cc12 (stereo unspecified)
